Measurements published in patent US20260297080A1, “BICYCLIC COMPOUNDS AS CDK INHIBITORS” (BeOne Medicines I GmbH, priority 2022, published 2026).

Legend:
CDK1/Cyclin B1 = CDK1/Cyclin B1 (Homo sapiens, UniProt P06493); test: CDK1/Cyclin B1 Biochemical Assay (TR-FRET), 0.015 mM ATP; details: 0.15 μM Rb (Ser780)-biotin substrate, pH7.0, 60 min preincubation, 120 min reaction, room temperature
Outline: (§1)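 TR-FRET readout: 665/620 nm ratio from Eu-cryptate anti-pRb(Ser780) antibody plus streptavidin-XL665, converted to % inhibition and fitted (4-parameter logistic) for IC50. Reactions used 0.15 μM biotinylated Rb (Ser780) substrate, compound 0–10 μM, 60 min enzyme–compound preincubation, then 120 min reaction at room temperature.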

CDK2/Cyclin E1 = CDK2/Cyclin E1 (Homo sapiens, UniProt P24941); test: CDK2/Cyclin E1 Biochemical Assay (TR-FRET), 0.060 mM ATP; details: 0.15 μM Rb (Ser780)-biotin substrate, pH7.0, 60 min preincubation, 120 min reaction, room temperature
Outline: as §1

CDK1/Cyclin B1, sequence (P06493 whole entry): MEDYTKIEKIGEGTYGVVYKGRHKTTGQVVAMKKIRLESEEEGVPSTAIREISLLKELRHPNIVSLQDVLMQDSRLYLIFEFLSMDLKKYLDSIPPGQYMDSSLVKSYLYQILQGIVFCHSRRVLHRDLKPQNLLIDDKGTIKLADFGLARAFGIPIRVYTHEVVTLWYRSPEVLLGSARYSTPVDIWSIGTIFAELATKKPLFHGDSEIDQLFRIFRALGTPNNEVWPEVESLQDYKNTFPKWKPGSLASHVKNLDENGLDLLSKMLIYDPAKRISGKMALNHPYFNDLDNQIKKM
CDK1/Cyclin B1, sequence (P14635 whole entry partner): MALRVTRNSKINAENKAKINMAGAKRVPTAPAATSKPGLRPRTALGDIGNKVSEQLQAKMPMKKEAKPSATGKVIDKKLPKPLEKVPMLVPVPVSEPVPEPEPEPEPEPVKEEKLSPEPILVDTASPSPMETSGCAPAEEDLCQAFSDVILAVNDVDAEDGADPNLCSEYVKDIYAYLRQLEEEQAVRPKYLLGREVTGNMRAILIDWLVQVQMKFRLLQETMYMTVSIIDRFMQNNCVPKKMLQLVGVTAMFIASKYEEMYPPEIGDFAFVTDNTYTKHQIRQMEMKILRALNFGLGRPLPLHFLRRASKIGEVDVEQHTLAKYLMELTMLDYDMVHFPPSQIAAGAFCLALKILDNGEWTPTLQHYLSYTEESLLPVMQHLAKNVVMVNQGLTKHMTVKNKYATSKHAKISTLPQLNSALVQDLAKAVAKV

| Compound | IC50 (CDK1/Cyclin B1) | IC50 (CDK2/Cyclin E1) |
| --- | --- | --- |
| CC1(NC(=O)O[C@H]2CC[C@@H](c3cc(Nc4ccc5c(c4Cl)CNS5(=O)=O)n[nH]3)C2)CC1 (single isomer, unassigned) [Example 40a, cis-3-(3-((4-chloro-1,1-dioxido-2,3-dihydrobenzo[d]isothiazol-5-yl)amino)-1H-pyrazol-5-yl)cyclopentyl(1-methylcyclopropyl)carbamate] | 370 nM | 5.4 nM |
| CC1(NC(=O)O[C@H]2CC[C@@H](c3cc(Nc4ccc5c(c4Cl)CNS5(=O)=O)n[nH]3)C2)CC1 (single isomer, unassigned) [Example 40b, cis-3-(3-((4-chloro-1,1-dioxido-2,3-dihydrobenzo[d]isothiazol-5-yl)amino)-1H-pyrazol-5-yl)cyclopentyl(1-methylcyclopropyl)carbamate] | 181 nM | 3.1 nM |
| CCCNC(=O)O[C@H]1CC[C@@H](c2cc(Nc3cc4c(cc3F)S(=O)(=O)NC4)n[nH]2)C1 (single isomer, unassigned) [Example 42a, cis-3-(3-((6-fluoro-1,1-dioxido-2,3-dihydrobenzo[d]isothiazol-5-yl)amino)-1H-pyrazol-5-yl)cyclopentyl propylcarbamate] | 891 nM | 14 nM |
| CCCNC(=O)O[C@H]1CC[C@@H](c2cc(Nc3cc4c(cc3F)S(=O)(=O)NC4)n[nH]2)C1 (single isomer, unassigned) [Example 42b, cis-3-(3-((6-fluoro-1,1-dioxido-2,3-dihydrobenzo[d]isothiazol-5-yl)amino)-1H-pyrazol-5-yl)cyclopentyl propylcarbamate] | 128 nM | 5.5 nM |
| CC1(NC(=O)O[C@H]2CC[C@@H](c3cc(Nc4cc5c(cc4F)S(=O)(=O)NC5)n[nH]3)C2)CC1 (single isomer, unassigned) [Example 44a, cis-3-(3-((6-fluoro-1,1-dioxido-2,3-dihydrobenzo[d]isothiazol-5-yl)amino)-1H-pyrazol-5-yl)cyclopentyl(1-methylcyclopropyl)carbamate] | 138 nM | 1.3 nM |
| CC1(NC(=O)O[C@H]2CC[C@@H](c3cc(Nc4cc5c(cc4F)S(=O)(=O)NC5)n[nH]3)C2)CC1 (single isomer, unassigned) [Example 44b, cis-3-(3-((6-fluoro-1,1-dioxido-2,3-dihydrobenzo[d]isothiazol-5-yl)amino)-1H-pyrazol-5-yl)cyclopentyl(1-methylcyclopropyl)carbamate] | 91 nM | 2.5 nM |
| CC(C)NC(=O)O[C@H]1CC[C@@H](c2cc(Nc3ccc4c(c3F)CN(C3CCC3O)S4(=O)=O)n[nH]2)C1 (single isomer, unassigned) [Example 102, cis-3-(3-((4-fluoro-2-(2-hydroxycyclobutyl)-1,1-dioxido-2,3-dihydrobenzo[d]isothiazol-5-yl)amino)-1H-pyrazol-5-yl)cyclopentyl isopropylcarbamate] | 406 nM | 5.1 nM |
| CC(C)NC(=O)O[C@H]1CC[C@@H](c2cc(Nc3ccc4c(c3F)CN(C3CCC3O)S4(=O)=O)n[nH]2)C1 (single isomer, unassigned) [Example 103, cis-3-(3-((4-fluoro-2-(2-hydroxycyclobutyl)-1,1-dioxido-2,3-dihydrobenzo[d]isothiazol-5-yl)amino)-1H-pyrazol-5-yl)cyclopentyl isopropylcarbamate] | 350 nM | 3.8 nM |

The remaining lines, values ahead:

| IC50 (CDK1/Cyclin B1) | IC50 (CDK2/Cyclin E1) | Compound |
| --- | --- | --- |
| 194 nM | 2.5 nM | CC(C)NC(=O)O[C@H]1CC[C@@H](c2cc(Nc3ccc4c(c3F)C(C)NS4(=O)=O)n[nH]2)C1 (single isomer, unassigned) [Example 51a, cis-3-(3-((4-fluoro-3-methyl-1,1-dioxido-2,3-dihydrobenzo[d]isothiazol-5-yl)amino)-1H-pyrazol-5-yl)cyclopentyl isopropylcarbamate] |
| 82 nM | 3.3 nM | CC(C)NC(=O)O[C@H]1CC[C@@H](c2cc(Nc3ccc4c(c3F)C(C)NS4(=O)=O)n[nH]2)C1 (single isomer, unassigned) [Example 51b, cis-3-(3-((4-fluoro-3-methyl-1,1-dioxido-2,3-dihydrobenzo[d]isothiazol-5-yl)amino)-1H-pyrazol-5-yl)cyclopentyl isopropylcarbamate] |
| 106 nM | 2.1 nM | CC(C)NC(=O)O[C@H]1CC[C@@H](c2cc(Nc3ccc4c(c3F)C(C)NS4(=O)=O)n[nH]2)C1 (single isomer, unassigned) [Example 51c, cis-3-(3-((4-fluoro-3-methyl-1,1-dioxido-2,3-dihydrobenzo[d]isothiazol-5-yl)amino)-1H-pyrazol-5-yl)cyclopentyl isopropylcarbamate] |
| 447 nM | 8.7 nM | CC(C)NC(=O)O[C@H]1CC[C@@H](c2cc(Nc3ccc4c(c3F)C(C)NS4(=O)=O)n[nH]2)C1 (single isomer, unassigned) [Example 51d, cis-3-(3-((4-fluoro-3-methyl-1,1-dioxido-2,3-dihydrobenzo[d]isothiazol-5-yl)amino)-1H-pyrazol-5-yl)cyclopentyl isopropylcarbamate] |
| 274 nM | 3.5 nM | CC1NS(=O)(=O)c2ccc(Nc3cc([C@@H]4CC[C@H](OC(=O)NC5(C)CC5)C4)[nH]n3)c(F)c21 (single isomer, unassigned) [Example 52a, cis-3-(3-((4-fluoro-3-methyl-1,1-dioxido-2,3-dihydrobenzo[d]isothiazol-5-yl)amino)-1H-pyrazol-5-yl)cyclopentyl(1-methylcyclopropyl)carbamate] |
| 153 nM | 2.7 nM | CC1NS(=O)(=O)c2ccc(Nc3cc([C@@H]4CC[C@H](OC(=O)NC5(C)CC5)C4)[nH]n3)c(F)c21 (single isomer, unassigned) [Example 52b, cis-3-(3-((4-fluoro-3-methyl-1,1-dioxido-2,3-dihydrobenzo[d]isothiazol-5-yl)amino)-1H-pyrazol-5-yl)cyclopentyl(1-methylcyclopropyl)carbamate] |
| 154 nM | 1.9 nM | CC1NS(=O)(=O)c2ccc(Nc3cc([C@@H]4CC[C@H](OC(=O)NC5(C)CC5)C4)[nH]n3)c(F)c21 (single isomer, unassigned) [Example 52c, cis-3-(3-((4-fluoro-3-methyl-1,1-dioxido-2,3-dihydrobenzo[d]isothiazol-5-yl)amino)-1H-pyrazol-5-yl)cyclopentyl(1-methylcyclopropyl)carbamate] |
| 56 nM | 1 nM | CC1NS(=O)(=O)c2ccc(Nc3cc([C@@H]4CC[C@H](OC(=O)NC5(C)CC5)C4)[nH]n3)c(F)c21 (single isomer, unassigned) [Example 52d, cis-3-(3-((4-fluoro-3-methyl-1,1-dioxido-2,3-dihydrobenzo[d]isothiazol-5-yl)amino)-1H-pyrazol-5-yl)cyclopentyl(1-methylcyclopropyl)carbamate] |
| 367 nM | 6.3 nM | CCCNC(=O)O[C@H]1CC[C@@H](c2cc(Nc3ccc4c(c3F)C(C)NS4(=O)=O)n[nH]2)C1 (single isomer, unassigned) [Example 53a, cis-3-(3-((4-fluoro-3-methyl-1,1-dioxido-2,3-dihydrobenzo[d]isothiazol-5-yl)amino)-1H-pyrazol-5-yl)cyclopentyl propylcarbamate] |
| 92 nM | 3.8 nM | CCCNC(=O)O[C@H]1CC[C@@H](c2cc(Nc3ccc4c(c3F)C(C)NS4(=O)=O)n[nH]2)C1 (single isomer, unassigned) [Example 53b, cis-3-(3-((4-fluoro-3-methyl-1,1-dioxido-2,3-dihydrobenzo[d]isothiazol-5-yl)amino)-1H-pyrazol-5-yl)cyclopentyl propylcarbamate] |
| 686 nM | 15 nM | CCCNC(=O)O[C@H]1CC[C@@H](c2cc(Nc3ccc4c(c3F)C(C)NS4(=O)=O)n[nH]2)C1 (single isomer, unassigned) [Example 53c, cis-3-(3-((4-fluoro-3-methyl-1,1-dioxido-2,3-dihydrobenzo[d]isothiazol-5-yl)amino)-1H-pyrazol-5-yl)cyclopentyl propylcarbamate] |
| 170 nM | 7.1 nM | CCCNC(=O)O[C@H]1CC[C@@H](c2cc(Nc3ccc4c(c3F)C(C)NS4(=O)=O)n[nH]2)C1 (single isomer, unassigned) [Example 53d, cis-3-(3-((4-fluoro-3-methyl-1,1-dioxido-2,3-dihydrobenzo[d]isothiazol-5-yl)amino)-1H-pyrazol-5-yl)cyclopentyl propylcarbamate] |
| 309 nM | 1.1 nM | CC[C@H](C)NC(=O)O[C@H]1CC[C@@H](c2cc(Nc3ccc4c(c3F)C(C)NS4(=O)=O)n[nH]2)C1 (single isomer, unassigned) [Example 54a] |
| 564 nM | 2.7 nM | CC[C@H](C)NC(=O)O[C@H]1CC[C@@H](c2cc(Nc3ccc4c(c3F)C(C)NS4(=O)=O)n[nH]2)C1 (single isomer, unassigned) [Example 54b] |
| 40 nM | 0.3 nM | CC[C@H](C)NC(=O)O[C@H]1CC[C@@H](c2cc(Nc3ccc4c(c3F)C(C)NS4(=O)=O)n[nH]2)C1 (single isomer, unassigned) [Example 54c] |
| 428 nM | 3.2 nM | CC[C@H](C)NC(=O)O[C@H]1CC[C@@H](c2cc(Nc3ccc4c(c3F)C(C)NS4(=O)=O)n[nH]2)C1 (single isomer, unassigned) [Example 54d] |
| 518 nM | 5.4 nM | CC(C)NC(=O)O[C@H]1CC[C@@H](c2cc(Nc3ccc4c(c3F)CN(C3CC3)S4(=O)=O)n[nH]2)C1 (single isomer, unassigned) [Example 116a, cis-3-(3-((2-cyclopropyl-4-fluoro-1,1-dioxido-2,3-dihydrobenzo[d]isothiazol-5-yl)amino)-1H-pyrazol-5-yl)cyclopentyl isopropylcarbamate] |
